# Values of other authors in US20060045928A1, “Composition containing herbal medicine component for promoting absorption and production method thereof” (priority 2004, published 2006).
# Settings: carrot fried with oil
smiles,measurement,value
CC1=C(/C=C/C(C)=C/C=C/C(C)=C/C=C/C=C(C)/C=C/C=C(C)/C=C/C2=C(C)CCCC2(C)C)C(C)(C)CCC1 [β-carotene],"absorption rate improvement, compared with eating raw carrot",5 to 10 times
